Laboratory results as given in PubChem BioAssay AID608 (Sanford-Burnham Center for Chemical Genomics, 2007).
Calls of active or inactive are those of the source. How the calls were made is not given here.

Biological target: Peptidyl-prolyl cis-trans isomerase FKBP1A (Homo sapiens) (UniProt P62942)
Assay: small-molecule binding to FKBP12 – biophysical, NMR detection (AID 608)
Conditions: purified FKBP12

Chain of Peptidyl-prolyl cis-trans isomerase FKBP1A (Homo sapiens) (P62942 whole entry, looked up): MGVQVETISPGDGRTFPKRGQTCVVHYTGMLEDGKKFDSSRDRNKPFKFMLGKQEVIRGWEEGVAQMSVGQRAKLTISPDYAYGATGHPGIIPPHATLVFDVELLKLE

SMILES | Kd
CC(=O)CS(=O)(=O)c1ccccc1 | > 4 mM (inactive)
O=C1CC(=O)N(c2ccccc2)C(=O)N1 | > 4 mM (inactive)
CSc1nn(-c2ccccc2)c(N)c1C#N | > 4 mM (inactive)
OCC1COc2ccccc2C1 (centres undefined) | > 4 mM (inactive)
O=C1CSC(=O)N1CN1CCOCC1 | > 4 mM (inactive)
NC(=O)C(=O)Nc1nc(-c2ccccc2)cs1 | > 4 mM (inactive)
CCC(C)C(=O)c1c(O)c(C)c2oc3c(C)c(O)c(C(=O)C(C)CC)c(O)c3c2c1O (centres undefined) | > 4 mM (inactive)
CC1(C)C=CC(=O)[C@@]2(C)C1CC(=O)[C@]1(C)C2CC[C@@]2(C)[C@H](c3ccoc3)OC(=O)C3OC321 (some centres undefined) | > 4 mM (inactive)
O=C(O)c1cnc2sc3ccccc3n2c1=O | > 4 mM (inactive)
O=C(O)c1cc(=O)c2cccc(O)c2[nH]1 | > 4 mM (inactive)
Cc1nc(-c2cnccn2)sc1C(=O)O | > 4 mM (inactive)
Cc1ccc(=O)[nH]c1 | > 4 mM (inactive)
CC(C)(C#N)O[C@@H]1O[C@H](CO)[C@@H](O)[C@H](O)[C@H]1O | > 4 mM (inactive)
NC(=O)C1(c2ccccc2)CCOCC1 | > 4 mM (inactive)
O=C(Nc1nncs1)Oc1ccccc1 | > 4 mM (inactive)
Cc1ccc(CN2CCN(C(=O)C3CCC3)CC2)cc1 | > 4 mM (inactive)
O=C(O)CC1C(=O)NCCN1Cc1ccccc1 (centres undefined) | > 4 mM (inactive)
N#Cc1cnn(-c2ccc(Cl)cc2)c1N | > 4 mM (inactive)
NC(=O)c1ccc(NC(=O)c2cccnc2)cc1 | > 4 mM (inactive)
O=C1C=C(Nc2ccc(O)cc2)c2ccccc2C1=O | > 4 mM (inactive)
O=C(NCc1cccc(Cl)c1)c1cccnc1 | > 4 mM (inactive)

SMILES | Kd
O=C1CCC(=O)N1c1nc2ccccc2s1 | > 4 mM (inactive)
Nc1cc(=O)[nH]c(=O)n1-c1ccccc1 | > 4 mM (inactive)
CNC(=O)Cn1c(=O)n(C)c2ccccc21 | > 4 mM (inactive)
COc1ccc(C(=O)CC(=O)O)c2c1C=CC(C)(C)O2 | > 4 mM (inactive)
CC(=O)Nc1ccc2c(c1)n(C)c(=O)n2C | > 4 mM (inactive)
CC(=O)O[C@]1(C)CC[C@@]23CC1C(C)(C)[C@@H]2CC[C@H]3C | > 4 mM (inactive)
OC1CSc2ncnn2C1 (centres undefined) | > 4 mM (inactive)
O=c1cc(O)nc(SCc2ccccc2)[nH]1 | > 4 mM (inactive)
O=c1[nH]cc(CN2CCOCC2)c(=O)[nH]1 | > 4 mM (inactive)
Cc1ccc(C(O)c2nccn2C)o1 (centres undefined) | > 4 mM (inactive)
CC1(C)CC2C1CC[C@]1(C)CCC3C(C(=O)O)CC(=O)O[C@@]32C1 (some centres undefined) | > 4 mM (inactive)
CN1CN(Cc2ccccc2)CN/C1=N/[N+](=O)[O-] | > 4 mM (inactive)
NC1=NC(=O)/C(=C/c2ccccc2[N+](=O)[O-])S1 | > 4 mM (inactive)
CC(C)c1ccc2c(c1)CCC1C(C)(C(N)=O)CCCC21C (centres undefined) | > 4 mM (inactive)
Cc1nn(C)c(C)c1C(=O)O | > 4 mM (inactive)
Cc1cc(=O)c2c(O)c(C)c(O)cc2o1 | > 4 mM (inactive)
O=C1CC(C(=O)O)c2ccccc21 (centres undefined) | > 4 mM (inactive)
CC(NC(=O)c1ccco1)C1CCCO1 (centres undefined) | > 4 mM (inactive)
O=C(O)CNS(=O)(=O)c1cccs1 | > 4 mM (inactive)
Cc1cc2cc3c(C)cc(=O)oc3c(C)c2o1 | > 4 mM (inactive)
O=c1[nH]c2c(c(=O)n1C1CCCCC1)CCC2 | > 4 mM (inactive)

SMILES | Kd
CCC(C)C(=O)O[C@H]1[C@H](O)C2C(CN3CC(C)CCC3[C@@]2(C)O)C2C[C@]34O[C@]5(O)C(OC(=O)C(C)(O)CC)CC[C@@]3(C)C5C(OC(C)=O)[C@@H](OC(C)=O)C4[C@@]21O (some centres undefined) | > 4 mM (inactive)
Cc1nn2c3ccccc3nc2n(Cc2ccccc2)c1=O | > 4 mM (inactive)
O=C(O)CSCc1c(F)cccc1Cl | > 4 mM (inactive)
O=C(c1sc2cccc(F)c2c1Cl)N1CCOCC1 | inactive
O=C1CSC(=O)N1CN1CCCC1 | > 4 mM (inactive)
O=C1CCC(C(=O)NCc2ccc(Cl)cc2)N1 (centres undefined) | > 4 mM (inactive)
CN1C(=O)/C(=C/c2ccc(O)cc2O)SC1=S | > 4 mM (inactive)
CC(=O)OCC(OC(C)=O)C(OC(C)=O)C(OC(C)=O)C(OC(C)=O)C(COC(C)=O)OC(C)=O (centres undefined) | > 4 mM (inactive)
CCN(CC)S(=O)(=O)c1ccc(F)cc1 | > 4 mM (inactive)
COc1cc(OC)c2c(=O)c(-c3ccccc3)coc2c1 | > 4 mM (inactive)
Cc1sc2nc(SCC(=O)N(C)C)[nH]c(=O)c2c1C | > 4 mM (inactive)
Cc1ccccc1OCC(=O)O | > 4 mM (inactive)
COc1c2c(c(CC=C(C)C)c3oc(=O)c(-c4ccc(O)cc4)c(O)c13)OC(C)(C)C=C2 | > 4 mM (inactive)
CC(=O)c1ccc(NS(=O)(=O)c2cccc(C)c2)cc1 | > 4 mM (inactive)
CCC(=O)Nc1cc(C(C)C)c(O)cc1C | > 4 mM (inactive)
CC(=O)Nc1sccc1C(N)=O | > 4 mM (inactive)
O=c1n(-c2cccc(Cl)c2)c(=O)n2n1CCC2 | > 4 mM (inactive)
O=C(O)CSCC(=O)Nc1cccc(O)c1 | > 4 mM (inactive)
NC(=O)CN1CCC(c2nc3ccccc3[nH]2)CC1 | > 4 mM (inactive)
O=C(CC1SC(=O)NC1=O)Nc1ccccc1 (centres undefined) | > 4 mM (inactive)
COc1ccc(NC(=O)C2CC(=O)N=C(N)S2)cc1 (centres undefined) | > 4 mM (inactive)

SMILES | Kd
OC[C@@H]1CCCN2CCCC[C@H]12 | > 4 mM (inactive)
CCSc1nc(=S)n(CC)c(C)c1C(C)=O | > 4 mM (inactive)
O=c1c(O)cccc2cc(O)c(O)c(O)c12 | > 4 mM (inactive)
CC(=O)OC1CCC23C(=O)OC45CCC(C6=CC(=O)OC6)C4(C)CCC2C5CCC3(O)C1 (centres undefined) | > 4 mM (inactive)
COc1cccc(C(=O)Nc2c(C)n[nH]c2C)c1 | > 4 mM (inactive)
Cc1sc(CCc2nc(-c3ccccc3)c(C)s2)nc1-c1ccccc1 | inactive
CN(C)C(=S)Nc1nc2ccccc2s1 | 0.152 mM
CC(=O)O[C@H]1CC[C@@]2(C)C(CC[C@]3(C)C2C(=O)C=C2C4[C@@H](C)[C@H](C)CC[C@]4(C(=O)O)CC[C@]23C)C1(C)C (some centres undefined) | > 4 mM (inactive)
CCNC(CC(=O)Nc1cccc([N+](=O)[O-])c1)C(=O)O (centres undefined) | > 4 mM (inactive)
Nc1nc2c3ccccc3nc(Cc3ccccc3)n2n1 | > 4 mM (inactive)
CCOC(=O)c1c(C)n([O-])c2ccccc2[n+]1=O | > 4 mM (inactive)
COc1cc2c(cc1OC)-c1nnnn1C(C)(C)C2 | > 4 mM (inactive)
Nc1cc(F)nc(F)n1 | > 4 mM (inactive)
NC(=O)c1cc(N)cc(C(N)=O)c1 | > 4 mM (inactive)
COc1c(O)cc(O)cc1O | > 4 mM (inactive)
O=C(Cc1ccc(F)cc1)Nc1ncccn1 | > 4 mM (inactive)
CCOC(=O)C1CCNCC1 | > 4 mM (inactive)
CC(C)=NNC(=O)c1ccccc1 | > 4 mM (inactive)
CC(=O)O[C@@H]1CC2C(C)(C)[C@@H](O)CC[C@]2(C)C2CC[C@@]3(C)[C@H](c4ccoc4)OC(=O)[C@H]4O[C@]43[C@@]21C (some centres undefined) | > 4 mM (inactive)
O=C(O)c1cc2ccccc2cn1 | > 4 mM (inactive)
CC(=O)N1CC2(C)CN(C(C)=O)CC(C)(C1)C2 | > 4 mM (inactive)
